Assay results: patent US20260215425A1, “NITRIFICATION INHIBITORS” (The University of Melbourne, priority 2022, published 2026)

What was measured:
[1] = tested on: N. europaea and N. multiformis; experiment: activity recovery assay (binding studies); format: cell-based; settings: [inhibitor]=1.5 mM, 30 min, then washed and re-incubated with (NH4)2SO4
Method: Cells were harvested using the ‘standard cell harvesting protocol’. The bacteria solution was adjusted to an OD600=0.8 (100 μg/L protein) and 980 μL aliquots were transferred to 1.5 mL centrifuge tubes (Eppendorf®, polypropylene). 10 μL of the inhibitor solution (150 mM in DMSO) was added and pre-equilibrated for 5 min; 10 μL of aqueous 150 mM (NH4)2SO4 (final concentration in tube=3 mM) was added by via multichannel pipette to ensure simultaneous addition in each tube. The tubes were incubated in a temperature-regulated rotary incubator (Ratek, Australia) for 30 min at 30° C. at 100 rpm in the dark. After 30 minutes, a 50 μL aliquot was transferred to a 96-well plate (Greiner Cellstar®, polystyrene), 50 μL of Griess reagent was added and the mixture incubated for 15 minutes. The absorbance was measured photometrically (Clariostar® BMG Labtech, Australia) at 540 nm. The cells were washed repeatedly (3×) by periodic centrifuging (Boeco, Germany; 10.000 rpm, 10 min) and resuspending the pellet in 1 mL NaPB. After the final centrifuging step, the pellet was resuspended in 990 μL NaPB and re-incubated with (NH4)2SO4 (10 μL of an aqueous 150 mM solution), and the NO2 concentration was measured under the previously described conditions. Each assay was accompanied by control treatments to determine the 0% and 100% NO2 signal. […]

N. europaea = experiment: acute toxicity test (LIVE/DEAD stain); format: cell-based; settings: [4-MPT]=1.5 mM (50 mol % of [NH4+]), [NH4+]=3 mM, 12 h
Method: Cells were harvested using the ‘standard cell harvesting protocol’. The bacteria solution was adjusted to an OD600=0.8 (100 μg/L protein). The solution was divided into 1 mL aliquots and transferred to a 24-well tissue culture plate (Greiner Cellstar®, polystyrene Tissue Culture treated). Each well contained 980 μL of bacterial solution, 10 μL of a 150 mM aqueous (NH4)2SO4 solution and 10 μL of a 150 mM inhibitor solution. […] After incubation, cells were transferred into a centrifuge tube and sedimented at 10,000 rpm for 10 minutes. The supernatant was discarded, and cells were re-suspended in 1 mL NaPB. A 5 μL aliquot was transferred into a 96-well plate and the bacterial stain (LIVE/DEAD™ BacLight™ Bacterial Viability Kit for microscopy, ThermoFisher Scientific) was added following the manufacturer's guideline. 10 μL of the solution was transferred onto a microscopic slide (Fisher Scientific, Australia, microscope slides 7.6 cm×2.5 cm (L×W), thickness 1-1.2 mm). Ten images were taken per treatment with a fluorescence microscope (Leica DM6000, Germany) using the red filter setting (excitation:
575/30 nm (dichromatic) DC: 600; emission: 635/40 nm) and green channel using filter setting (excitation: 500/20 nm DC: 515; emission: 535/30 nm) to detect dead and live cells respectively. The percentage of live and dead cells was calculated via eqns.

[2] = tested on: hydroxylamine oxireductase (HOA); experiment: standard nitrification inhibition assay with NH2OH as substrate; format: cell-based, N. multiformis; settings: substrate NH2OH 3 mM, [inhibitor]=0.3 mM, pH 7.5, 30° C., 60 min
soil A = experiment: soil incubation, NH4+ and NO3- in soil A; settings: 21 days
Method: Soils used in these studies were air-dried, ground and sieved (2 mm) prior to use. Soil microcosm incubations were carried out in 250 mL polypropylene specimen containers (Sarstedt, Germany), containing 20 g oven dry-weight equivalent of soil. Microcosms were treated with half the volume of water required to meet the desired water-filled pore space (WFPS %) of 60% and pre-incubated at 25° C. for seven days to revive soil microbial activity. Following pre-incubation, the remaining volume to reach the WFPS % was applied as one of the treatment solutions: (1) fertiliser ((NH4)2SO4,) 100 mg kg^−1, (2) fertiliser+0.5 mol % 4-MPT, (3) fertiliser+2.5 mol % 4-MPT, (4) fertiliser+5 mol % 4-MPT or (5) fertiliser+5 mol % compound 1, with three replicates of each treatment per time interval (n=3). Throughout the incubation period soil microcosms were kept aerated by removing the lid for 10 minutes every 2-3 days to allow gas exchange, and moisture levels were replenished via addition of Milli-Q water as required. At the end of the desired incubation period (i.e., after 0, 3, 7, 14, and 21 days, respectively), soil microcosms were removed and destructively sampled by treating with 2 M aqueous potassium chloride solution (KCl, 100 mL) and shaking for 1 h. Soil-KCl solutions were filtered (Whatman No. 42), and the filtrates were stored at −20° C. until the conclusion of the experiment, when all KCl extracts were analysed for the concentration of soil mineral nitrogen from ammonium (NH4^+—N) and from nitrate (NO3^−—N; the conversion of NO2 to NO3^− in soils is very rapid) after appropriate dilutions using Segmented Flow Analysis (San++, Skalar, Breda, The Netherlands). Results are reported as the mean of three replicates, errors reported are standard errors of the mean. Errors associated with raw data were carried through calculations using standard error propagation protocols.
To determine the nitrification inhibitory effect of 4-MPT in vivo, soil incubations were performed by measuring concentration-time profiles for NH4^+ and NO3^− in an acidic Australian soil (soil A, pH=5.9) over 21 days. 4-MPT was tested at three different concentrations (0.5 mol %, 2.5 mol % and 5 mol % of applied fertiliser-N) and compared with the alkyl-substituted compound 1 (5 mol % of applied fertiliser-N) to confirm the requirement of the N-propargyl substitutent for inhibitory activity (FIG. 5).

C#CCn1cc(C)nn1 [Compound 4-MPT, 4-Methyl-1-(prop-2-yn-1yl)-1H-1,2,3-triazole]
recovery of activity of cells after three washing steps [1]: could not be recovered | % Dead (N. europaea): 25 ± 8% | % Live (N. europaea): 75 ± 8% | % Inhibition NM [2]: 33 ± 4% | NH4+ loss / conversion in soil (soil A; 0.5 mol % of applied fertiliser-N): noticeably delayed NH4^+ loss within the first 15 days | NH4+ loss / conversion in soil (soil A; 2.5 mol % of applied fertiliser-N): quantitatively suppress NH4^+ conversion | NH4+ loss / conversion in soil (soil A; 5 mol % of applied fertiliser-N): quantitatively suppress NH4^+ conversion
